From article PMC4188605, “Biochemical and Pharmacological Characterization of the Human Lymphocyte Antigen B-Associated Transcript 5 (BAT5/ABHD16A)” (PLoS ONE, 2014)
Entries after “also recorded” stand apart in the source; their conditions may differ.

Key:
[1] = target: T1, hMAGL (Homo sapiens, UniProt Q99685); test: Hydrolase activity assay, hMAGL-HEK lysates; type: biochemical; details: hMAGL-HEK lysates
T1 construct: expressed in transfected cells; host or cells: HEK
T1 sequence (Q99685 1-303): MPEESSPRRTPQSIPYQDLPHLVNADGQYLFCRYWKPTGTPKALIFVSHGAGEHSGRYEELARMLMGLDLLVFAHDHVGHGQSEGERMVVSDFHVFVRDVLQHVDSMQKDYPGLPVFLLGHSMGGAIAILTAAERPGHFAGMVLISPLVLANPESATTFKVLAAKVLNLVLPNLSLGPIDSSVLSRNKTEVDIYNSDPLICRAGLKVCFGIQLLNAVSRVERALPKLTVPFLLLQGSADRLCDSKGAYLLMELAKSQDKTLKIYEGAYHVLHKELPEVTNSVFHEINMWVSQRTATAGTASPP

[2] = target: T2, hFAAH (Homo sapiens, UniProt O00519); test: FAAH activity assay, hFAAH-COS7 membranes (3H-anandamide); type: biochemical
T2 construct: expressed in transfected cells; host or cells: COS-7
T2 sequence (O00519 1-579): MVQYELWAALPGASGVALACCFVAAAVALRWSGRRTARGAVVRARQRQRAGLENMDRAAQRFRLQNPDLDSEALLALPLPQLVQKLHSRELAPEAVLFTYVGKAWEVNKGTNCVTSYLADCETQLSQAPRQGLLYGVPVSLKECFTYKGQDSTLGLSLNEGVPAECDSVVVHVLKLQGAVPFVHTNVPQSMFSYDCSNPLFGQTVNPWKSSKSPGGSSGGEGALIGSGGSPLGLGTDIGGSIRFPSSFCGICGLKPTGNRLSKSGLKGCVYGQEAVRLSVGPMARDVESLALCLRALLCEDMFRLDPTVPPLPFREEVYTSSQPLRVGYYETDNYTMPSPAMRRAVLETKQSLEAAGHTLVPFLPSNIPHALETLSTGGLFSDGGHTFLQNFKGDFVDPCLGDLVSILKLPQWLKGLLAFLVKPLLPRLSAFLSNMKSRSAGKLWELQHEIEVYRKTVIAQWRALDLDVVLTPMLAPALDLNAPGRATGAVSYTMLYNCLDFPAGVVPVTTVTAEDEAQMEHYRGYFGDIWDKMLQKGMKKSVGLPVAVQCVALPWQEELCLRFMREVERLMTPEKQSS

[3] = target: T3, BAT5 (Mus musculus, UniProt Q9Z1Q2); test: Competitive ABPP, mouse brain membrane proteome: BAT5 band; details: tested concentration range 10^−8–10^−5 M
T3 sequence (Q9Z1Q2 1-558): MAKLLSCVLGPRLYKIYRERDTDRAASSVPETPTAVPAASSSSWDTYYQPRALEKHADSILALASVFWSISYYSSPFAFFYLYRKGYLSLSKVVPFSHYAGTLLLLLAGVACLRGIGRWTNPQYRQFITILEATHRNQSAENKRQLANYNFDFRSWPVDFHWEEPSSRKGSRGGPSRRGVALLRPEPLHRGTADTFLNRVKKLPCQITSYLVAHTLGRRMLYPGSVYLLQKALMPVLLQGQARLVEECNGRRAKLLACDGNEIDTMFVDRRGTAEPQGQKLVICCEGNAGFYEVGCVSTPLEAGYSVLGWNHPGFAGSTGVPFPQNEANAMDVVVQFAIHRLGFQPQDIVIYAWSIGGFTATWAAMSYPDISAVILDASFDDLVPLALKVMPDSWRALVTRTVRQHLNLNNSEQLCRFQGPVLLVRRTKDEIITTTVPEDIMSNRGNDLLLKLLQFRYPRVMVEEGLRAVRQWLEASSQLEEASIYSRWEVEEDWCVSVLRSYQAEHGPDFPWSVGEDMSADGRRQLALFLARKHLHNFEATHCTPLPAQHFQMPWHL

[4] = target: T4, ABHD6 (Mus musculus, UniProt Q8R2Y0); test: Competitive ABPP, mouse brain membrane proteome: ABHD6 band; details: at the highest concentration (10^−5 M)
T4 sequence (Q8R2Y0 1-336): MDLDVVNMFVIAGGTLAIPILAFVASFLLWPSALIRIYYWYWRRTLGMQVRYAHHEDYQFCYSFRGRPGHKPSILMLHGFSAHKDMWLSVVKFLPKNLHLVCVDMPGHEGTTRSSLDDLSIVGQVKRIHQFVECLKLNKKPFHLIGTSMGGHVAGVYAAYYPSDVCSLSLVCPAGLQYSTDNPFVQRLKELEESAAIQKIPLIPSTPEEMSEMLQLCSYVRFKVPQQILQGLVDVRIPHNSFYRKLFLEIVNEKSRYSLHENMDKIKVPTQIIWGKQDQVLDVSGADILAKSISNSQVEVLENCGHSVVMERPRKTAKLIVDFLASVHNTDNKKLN

[5] = target: T5, ABHD12 (Mus musculus, UniProt Q99LR1); test: Competitive ABPP, mouse brain membrane proteome: ABHD12 band; details: tested concentration range 10^−8–10^−5 M
T5 sequence (Q99LR1 1-398): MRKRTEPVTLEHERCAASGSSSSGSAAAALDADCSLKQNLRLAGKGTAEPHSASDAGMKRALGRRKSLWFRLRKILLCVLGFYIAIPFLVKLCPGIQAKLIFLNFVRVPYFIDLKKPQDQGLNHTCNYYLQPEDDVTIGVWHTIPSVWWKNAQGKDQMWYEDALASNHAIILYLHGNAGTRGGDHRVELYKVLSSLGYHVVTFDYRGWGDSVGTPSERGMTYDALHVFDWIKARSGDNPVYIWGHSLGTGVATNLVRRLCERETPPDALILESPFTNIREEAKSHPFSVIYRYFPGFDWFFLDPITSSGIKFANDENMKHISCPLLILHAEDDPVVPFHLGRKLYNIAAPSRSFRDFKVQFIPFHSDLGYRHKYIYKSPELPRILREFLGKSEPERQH

[6] = target: T6, MAGL (Mus musculus, UniProt O35678); test: Competitive ABPP, mouse brain membrane proteome: MAGL doublet; details: at the highest concentration (10^−5 M)
T6 sequence (O35678 1-303): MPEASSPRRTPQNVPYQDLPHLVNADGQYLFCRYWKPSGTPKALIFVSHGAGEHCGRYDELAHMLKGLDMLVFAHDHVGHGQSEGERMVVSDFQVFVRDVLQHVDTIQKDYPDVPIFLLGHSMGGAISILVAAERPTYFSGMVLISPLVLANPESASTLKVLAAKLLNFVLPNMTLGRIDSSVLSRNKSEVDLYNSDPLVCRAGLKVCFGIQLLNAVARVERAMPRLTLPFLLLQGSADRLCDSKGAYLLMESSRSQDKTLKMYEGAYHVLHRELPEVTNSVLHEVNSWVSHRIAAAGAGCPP

Compound: CCCCCCCCCC[C@@H]1C(=O)O[C@H]1CCc1ccc(OC)c(OC)c1 [Palmostatin B, palmostatin B]
- IC50 [1]: 93.3 nM
- sensitivity of hFAAH (in words) [2]: resistant
- remaining activity at 1 µM ([2]; at 10^−6 M): 92.4%
- inhibition of probe binding to BAT5 [3]: dose-dependently inhibited probe binding; also recorded: dose-dependently inhibits probe labeling
- inhibition of probe binding to ABHD6 [4]: inhibited probe binding; also recorded: also inhibited
- inhibition of probe binding to ABHD12 [5]: dose-dependently inhibited probe binding; also recorded: dose-dependently inhibits probe labeling
- inhibition of probe binding to MAGL [6]: inhibited probe binding; also recorded: also inhibited
